≈ marks a conversion by molar mass, not a printed value.
Experiments:
[1] = Toxicity in brine shrimp after 24 hrs; format: organism-based; details: artemia, in vivo; read-out: LD50
[2] = Toxicity in brine shrimp after 48 hrs; format: organism-based; details: artemia, in vivo; read-out: LD50
SW480 = test: Antiproliferative activity against human SW480 cells after 5 days by MTT assay; details: SW480, 120 h
L929 = test: Antiproliferative activity against mouse L929 cells after 5 days by SRB assay; format: cell-based; details: L929, 120 h
A549 = test: Antiproliferative activity against human A549 cells after 5 days by MTT assay; details: A549, 120 h
[3] = Antiproliferative activity against human KB31 cells after 5 days by MTT assay; details: KB 3-1, 120 h

Compound	LC50 at 24 h [1] [µg/mL]	LC50 at 48 h [2] [nM]	IC50 (SW480) [nM]	IC50 (L929) [nM]	IC50 (A549) [nM]	IC50 [3] [nM]
COC(=O)C1=CO[C@H](O[C@@H]2O[C@H](CO)[C@@H](O)[C@H](O)[C@H]2O)[C@H]2[C@@H]1C=C[C@@]21C=C(C(O)c2ccc(O)cc2)C(=O)O1 (stereo partly specified) [GAERTNEROSIDE]	0.38 (≈ 0.693 µM)	224	–	–	–	–
COC(=O)C1=CO[C@@H]2O[C@H]3/C(=C\c4ccc(OC(C)=O)cc4)C(=O)O[C@]34C=C[C@H]1[C@H]24	–	–	84	410	1600	350
